Key:
[1] = tested on: OCT2; settings: cited from earlier work
[2] = target: OCT2 (Homo sapiens, UniProt O15244); assay: Time-dependent substrate uptake into HEK-OCT2 and vector control cells; assay type: cell-based; parameters: expressed in transfected cells; host or cells: HEK 293 cells, stably transfected (HEK-OCT2); vector control HEK-VC; settings: metformin 1000 μM; for Time until OCT2-mediated uptake reached steady-state: HEK-OCT2 cells
Method: For the transport assays HEK cell lines stably transfected with human OCT2 (HEK-OCT2) or the vector only (HEK-VC) were used. The HEK-OCT2 cell line was established and characterized previously. HEK-OCT2 and HEK-VC cells were seeded in poly-D-lysine (Sigma Aldrich, Taufkirchen, Germany) coated 48-well-plates at a density of 1.2 x 10^5 cells/well. […] In a total incubation volume of 125 μL the final concentrations of the test drugs were 20 or 200 μM. […] Uptake was stopped by washing the cells three times with ice-cold uptake buffer. Afterwards, cells were lysed with 5 mM Tris buffer (pH 7.3) containing 0.1% Triton X-100. The intracellular accumulation of radioactivity was determined by liquid scintillation counting (PerkinElmer, Rodgau-Jügesheim, Germany) and protein concentration of each lysate was measured with bicinchonic acid assay (BCA Protein Assay Kit, Thermo Fisher Scientific, Waltham, MA, USA). We performed two to eight experiments each on at least two separate days, i.e., n = 4–16. […] The percentage of uptake inhibition was calculated as: Inhibition (%) = 100 –(V / V 0 * 100), where V and V 0 are the net uptake rates with and without test drug.
Data are presented as the mean ± standard error (4–8 experiments each on two to four separate days, i.e., n = 8–29).

OCT2 (Homo sapiens, UniProt O15244), sequence (O15244 whole entry): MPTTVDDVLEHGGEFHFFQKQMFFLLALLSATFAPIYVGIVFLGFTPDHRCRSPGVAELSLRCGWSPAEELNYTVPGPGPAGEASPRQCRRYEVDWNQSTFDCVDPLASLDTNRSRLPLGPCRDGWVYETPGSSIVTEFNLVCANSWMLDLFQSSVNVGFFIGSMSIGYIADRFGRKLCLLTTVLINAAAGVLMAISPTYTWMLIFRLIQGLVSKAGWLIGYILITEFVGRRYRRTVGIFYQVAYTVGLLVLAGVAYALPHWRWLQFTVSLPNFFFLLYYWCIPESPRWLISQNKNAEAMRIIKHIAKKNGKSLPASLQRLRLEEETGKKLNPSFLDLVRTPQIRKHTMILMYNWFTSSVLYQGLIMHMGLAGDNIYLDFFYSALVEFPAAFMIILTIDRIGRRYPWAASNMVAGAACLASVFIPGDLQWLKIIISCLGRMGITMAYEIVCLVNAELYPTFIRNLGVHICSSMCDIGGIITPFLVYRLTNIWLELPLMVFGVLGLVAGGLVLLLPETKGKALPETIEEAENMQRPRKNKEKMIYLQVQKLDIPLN

Structure (SMILES)	Affinity for MATEs compared with OCT2 [1]	Inhibitor of OCT2 (in words) [1]	Time until OCT2-mediated uptake reached steady-state ([2]; MPP+ 50 μM)	Uptake of metformin in vector control cells ([2]; 3 min, HEK-VC, no inhibitor)	Uptake of metformin in HEK-OCT2 cells ([2]; 3 min, no inhibitor)	Uptake ratio OCT2 cells vs. vector control cells ([2]; MPP+ 50 μM, 3 min, no inhibitor)
CN/C(=N/CCSCc1nc[nH]c1C)NC#N [Cimetidine]	higher affinity for MATEs than for OCT2	rather weak inhibitor				
CN(C)C(=N)N=C(N)N [Metformin]			approximately 15 min	227 ± 22.1 pmol/mg/min	5946 ± 294.0 pmol/mg/min	
C[n+]1ccc(-c2ccccc2)cc1 [MPP^+, 1-methyl-4-phenylpyridinium]			approximately 15 min			3.2
